Measurements from ChEMBL document CHEMBL5385957, “Pleonotoquinones, Cytotoxic Oxepinenaphthoquinones from Pleonotoma jasminifolia” (J Nat Prod, 2024).

Legend:
[1] = Cytotoxicity against human MRC5 cells assessed as cell growth inhibition; format: toxicity, cell-based
HCT-116 = assay: Cytotoxicity against human HCT-116 cells assessed as cell growth inhibition; format: functional, cell-based
HepG2 = assay: Cytotoxicity against human HepG2 cells assessed as cell growth inhibition; format: functional, cell-based
[2] = Selectivity index, ratio of IC50 for human MRC5 cells to IC50 for human HCT-116 cells; format: toxicity; conditions: MRC5 cells versus HCT-116 cells, read-out: Ratio IC50
[3] = Selectivity index, ratio of IC50 for human MRC5 cells to IC50 for human HepG2 cells; format: toxicity; conditions: MRC5 cells versus HepG2 cells, read-out: Ratio IC50

| Structure (SMILES) | IC50 [1] [µM] | IC50 (HCT-116) [µM] | IC50 (HepG2) [µM] | selectivity ratio [2] | selectivity ratio [3] |
| --- | --- | --- | --- | --- | --- |
| COc1ccc2c(c1OC)C(=O)c1cc(C)ccc1C2=O | > 10 | > 10 | > 10 |  |  |
| COc1c(O)ccc2c1C(=O)c1cc(C)ccc1C2=O | > 10 | > 10 | > 10 |  |  |
| COc1cccc2c1C(=O)c1c(O)c3c(c(O)c1C2=O)C[C@@](O)(C(=O)CO)C[C@@H]3O[C@H]1C[C@H](N)[C@H](O)[C@H](C)O1 [DOXORUBICIN] | 3.5 |  | 0.7 |  |  |
| COc1ccc2c(=O)c3cccc(C)oc=3c(=O)c2c1OC | > 10 | 4.3 | 6.4 | 2.9 | 1.9 |
| COc1c(O)ccc2c(=O)c3cccc(C)oc=3c(=O)c12 | 8.2 | 2.6 | 1.9 | 3.1 | 4.1 |
